Source: patent US20240239861A1, “GLUCAGON-RECEPTOR SELECTIVE POLYPEPTIDES AND METHODS OF USE THEREOF” (i2O Therapeutics, Inc., priority 2016, published 2024)
Where a SMILES comes first, the peptide text is derived from it. [ ]: non-standard residue; d: D form. Aib = CC(C)(N)C(=O)O

Legend:
[1] = in vivo; conditions: male, rat
[2] = target: human GLP-1R (Homo sapiens, UniProt P43220); experiment: Peptide-receptor mediated cAMP accumulation (LANCE Ultra cAMP) in CHO-K1 cells transfected with human GLP-1R; type: cell-based; conditions: hGLP1 pEC50 (cAMP mean (n = 3): 11 point curve starting at 1 nM, Table 3)
Chain of human GLP-1R (P43220 24-463): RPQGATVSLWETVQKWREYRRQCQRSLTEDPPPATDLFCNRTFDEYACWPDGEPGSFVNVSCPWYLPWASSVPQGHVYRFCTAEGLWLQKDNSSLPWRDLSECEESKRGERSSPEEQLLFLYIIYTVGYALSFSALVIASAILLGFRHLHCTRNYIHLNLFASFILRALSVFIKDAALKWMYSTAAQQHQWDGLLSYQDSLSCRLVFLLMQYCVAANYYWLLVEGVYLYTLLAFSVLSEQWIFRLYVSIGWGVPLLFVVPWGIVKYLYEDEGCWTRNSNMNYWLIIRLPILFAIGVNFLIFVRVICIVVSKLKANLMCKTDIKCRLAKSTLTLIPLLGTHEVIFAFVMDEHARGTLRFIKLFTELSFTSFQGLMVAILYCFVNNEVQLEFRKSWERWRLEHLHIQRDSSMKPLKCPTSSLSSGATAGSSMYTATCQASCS

SMILES | clearance [1] | EC50 [2]
CC(C)C[C@H](NC(=O)[C@H](Cc1c[nH]c2ccccc12)NC(=O)[C@H](CCCCN)NC(=O)[C@H](CO)NC(=O)[C@H](Cc1ccc(O)cc1)NC(=O)[C@H](CC(=O)O)NC(=O)[C@H](CO)NC(=O)[C@@H](NC(=O)[C@H](Cc1ccccc1)NC(=O)[C@@H](NC(=O)CNC(=O)[C@H](Cc1c[nH]cn1)NC(=O)[C@@H](NC(=O)[C@@H](N)Cc1ccc(O)cc1)[C@@H](C)O)[C@@H](C)O)[C@@H](C)O)C(=O)N[C@@H](CC(=O)O)C(=O)NC(C)(C)C(=O)N[C@@H](C)C(=O)N[C@@H](CCCNC(=N)N)C(=O)N[C@@H](C)C(=O)N[C@@H](CCC(N)=O)C(=O)N[C@@H](CCC(=O)O)C(=O)N[C@@H](Cc1ccccc1)C(=O)N[C@H](C(=O)NC(C)(C)C(=O)N[C@@H](Cc1c[nH]c2ccccc12)C(=O)N[C@@H](CC(C)C)C(=O)N[C@@H](CCC(=O)O)C(=O)N[C@@H](CC(=O)O)C(=O)N[C@@H](CCC(=O)O)C(=O)N1CCC[C@H]1C(=O)N[C@@H](CO)C(=O)N[C@@H](CO)C(=O)NCC(=O)N[C@@H](C)C(=O)N1CCC[C@H]1C(=O)N1CCC[C@H]1C(=O)N1CCC[C@H]1C(=O)N[C@@H](CO)C(=O)O)C(C)C [Compound A35] (H-YTHGTFTSDYSKWLD[Aib]ARAQEFV[Aib]WLEDEPSSGAPPPS-OH; N-terminus assumed) | 30.1 mL/min/kg | > 1 nM
CC(C)C[C@H](NC(=O)[C@H](Cc1ccc(O)cc1)NC(=O)[C@H](CCCCN)NC(=O)[C@H](CO)NC(=O)[C@H](Cc1ccc(O)cc1)NC(=O)[C@H](CC(=O)O)NC(=O)[C@H](CO)NC(=O)[C@@H](NC(=O)[C@H](Cc1ccccc1)NC(=O)[C@@H](NC(=O)CNC(=O)[C@H](Cc1c[nH]cn1)NC(=O)[C@H](CO)NC(=O)[C@@H](N)Cc1ccc(O)cc1)[C@@H](C)O)[C@@H](C)O)C(=O)N[C@@H](CC(=O)O)C(=O)NC(C)(C)C(=O)N[C@@H](CCCCN)C(=O)N[C@@H](CCCNC(=N)N)C(=O)N[C@@H](C)C(=O)N[C@@H](CCC(N)=O)C(=O)N[C@@H](CCC(=O)O)C(=O)N[C@@H](Cc1ccccc1)C(=O)N[C@H](C(=O)NC(C)(C)C(=O)N[C@@H](Cc1c[nH]c2ccccc12)C(=O)N[C@@H](CC(C)C)C(=O)N[C@@H](CCC(=O)O)C(=O)N[C@@H](CC(=O)O)C(=O)N[C@@H](CCC(=O)O)C(=O)N[C@@H](CCCCN)C(=O)N[C@@H](CCCNC(=N)N)C(=O)N[C@@H](CC(N)=O)C(=O)N[C@@H](CCCCN)C(=O)N[C@@H](CC(N)=O)C(=O)N1CCC[C@H]1C(=O)N1CCC[C@H]1C(=O)N1CCC[C@H]1C(=O)N[C@@H](CO)C(=O)O)C(C)C [Compound A48] (H-YSHGTFTSDYSKYLD[Aib]KRAQEFV[Aib]WLEDEKRNKNPPPS-OH; N-terminus assumed) | 37 mL/min/kg | > 1 nM
CC[C@H](C)[C@H](NC(=O)[C@H](CC(=O)O)NC(=O)[C@H](CC(C)C)NC(=O)[C@H](Cc1ccc(O)cc1)NC(=O)[C@H](CCCCN)NC(=O)[C@H](CO)NC(=O)[C@H](Cc1ccc(O)cc1)NC(=O)[C@H](CC(=O)O)NC(=O)[C@H](CO)NC(=O)[C@@H](NC(=O)[C@H](Cc1ccccc1)NC(=O)[C@@H](NC(=O)CNC(=O)[C@H](Cc1c[nH]cn1)NC(=O)[C@H](CO)NC(=O)[C@@H](N)Cc1ccc(O)cc1)[C@@H](C)O)[C@@H](C)O)C(=O)N[C@@H](CCCCN)C(=O)N[C@@H](CCCNC(=N)N)C(=O)N[C@@H](C)C(=O)N[C@@H](CCC(N)=O)C(=O)N[C@@H](CCC(=O)O)C(=O)N[C@@H](Cc1ccccc1)C(=O)N[C@H](C(=O)NC(C)(C)C(=O)N[C@@H](Cc1c[nH]c2ccccc12)C(=O)N[C@@H](CC(C)C)C(=O)N[C@@H](CCC(=O)O)C(=O)N[C@@H](CC(=O)O)C(=O)N[C@@H](CCC(=O)O)C(=O)N1CCC[C@H]1C(=O)N[C@@H](CO)C(=O)N[C@@H](CO)C(=O)NCC(=O)N[C@@H](C)C(=O)N1CCC[C@H]1C(=O)N1CCC[C@H]1C(=O)N1CCC[C@H]1C(=O)N[C@@H](CO)C(=O)O)C(C)C [Compound A52] (H-YSHGTFTSDYSKYLDIKRAQEFV[Aib]WLEDEPSSGAPPPS-OH) | 29 mL/min/kg | > 1 nM
CC(C)C[C@H](NC(=O)[C@H](Cc1ccc(O)cc1)NC(=O)[C@H](CCCCN)NC(=O)[C@H](CO)NC(=O)[C@H](Cc1ccc(O)cc1)NC(=O)[C@H](CC(=O)O)NC(=O)[C@H](CO)NC(=O)[C@@H](NC(=O)[C@H](Cc1ccccc1)NC(=O)[C@@H](NC(=O)CNC(=O)[C@H](Cc1c[nH]cn1)NC(=O)[C@H](CO)NC(=O)[C@@H](N)Cc1ccc(O)cc1)[C@@H](C)O)[C@@H](C)O)C(=O)N[C@@H](CC(=O)O)C(=O)NC(C)(C)C(=O)N[C@@H](CCCCN)C(=O)N[C@@H](CCCNC(=N)N)C(=O)N[C@@H](C)C(=O)N[C@@H](CCC(N)=O)C(=O)N[C@@H](CCC(=O)O)C(=O)N[C@@H](Cc1ccccc1)C(=O)N[C@H](C(=O)NC(C)(C)C(=O)N[C@@H](Cc1c[nH]c2ccccc12)C(=O)N[C@@H](CC(C)C)C(=O)N[C@@H](CCC(=O)O)C(=O)N[C@@H](CC(=O)O)C(=O)N[C@@H](CCC(=O)O)C(=O)N1CCC[C@H]1C(=O)N[C@@H](CO)C(=O)N[C@@H](CO)C(=O)N[C@@H](CCCCN)C(=O)N[C@@H](CCC(=O)O)C(=O)N1CCC[C@H]1C(=O)N1CCC[C@H]1C(=O)N1CCC[C@H]1C(=O)N[C@@H](CO)C(=O)O)C(C)C [Compound A54] (H-YSHGTFTSDYSKYLD[Aib]KRAQEFV[Aib]WLEDEPSSKEPPPS-OH; N-terminus assumed) | 24 mL/min/kg | > 1 nM
CC(C)C[C@H](NC(=O)[C@H](Cc1ccc(O)cc1)NC(=O)[C@H](CCCCN)NC(=O)[C@H](CO)NC(=O)[C@H](Cc1ccc(O)cc1)NC(=O)[C@H](CC(=O)O)NC(=O)[C@H](CO)NC(=O)[C@@H](NC(=O)[C@H](Cc1ccccc1)NC(=O)[C@@H](NC(=O)CNC(=O)[C@H](Cc1c[nH]cn1)NC(=O)[C@H](CO)NC(=O)[C@@H](N)Cc1ccc(O)cc1)[C@@H](C)O)[C@@H](C)O)C(=O)N[C@@H](CC(=O)O)C(=O)NC(C)(C)C(=O)N[C@@H](CCCCN)C(=O)N[C@@H](CCCNC(=N)N)C(=O)N[C@@H](C)C(=O)N[C@@H](CCC(N)=O)C(=O)N[C@@H](CCC(=O)O)C(=O)N[C@@H](Cc1ccccc1)C(=O)N[C@H](C(=O)NC(C)(C)C(=O)N[C@@H](Cc1c[nH]c2ccccc12)C(=O)N[C@@H](CC(C)C)C(=O)N[C@@H](CCC(=O)O)C(=O)N[C@@H](CC(=O)O)C(=O)N[C@@H](CCC(=O)O)C(=O)N1CCC[C@H]1C(=O)N[C@@H](CCCCN)C(=O)N[C@@H](CO)C(=O)N[C@@H](CCCCN)C(=O)N[C@@H](C)C(=O)N1CCC[C@H]1C(=O)N1CCC[C@H]1C(=O)N1CCC[C@H]1C(=O)N[C@@H](CO)C(=O)O)C(C)C [Compound A56] (H-YSHGTFTSDYSKYLD[Aib]KRAQEFV[Aib]WLEDEPKSKAPPPS-OH; N-terminus assumed) | 39.9 mL/min/kg | > 1 nM
CC(C)C[C@H](NC(=O)[C@H](Cc1ccc(O)cc1)NC(=O)[C@H](CCCCN)NC(=O)[C@H](CO)NC(=O)[C@H](Cc1ccc(O)cc1)NC(=O)[C@H](CC(=O)O)NC(=O)[C@H](CO)NC(=O)[C@@H](NC(=O)[C@H](Cc1ccccc1)NC(=O)[C@@H](NC(=O)CNC(=O)[C@H](Cc1c[nH]cn1)NC(=O)[C@H](CO)NC(=O)[C@@H](N)Cc1ccc(O)cc1)[C@@H](C)O)[C@@H](C)O)C(=O)N[C@@H](CC(=O)O)C(=O)NC(C)(C)C(=O)N[C@@H](CCCCN)C(=O)N[C@@H](CCCNC(=N)N)C(=O)N[C@@H](C)C(=O)N[C@@H](CCC(N)=O)C(=O)N[C@@H](CCC(=O)O)C(=O)N[C@@H](Cc1ccccc1)C(=O)N[C@H](C(=O)NC(C)(C)C(=O)N[C@@H](Cc1c[nH]c2ccccc12)C(=O)N[C@@H](CC(C)C)C(=O)N[C@@H](CCC(=O)O)C(=O)N[C@@H](CC(=O)O)C(=O)N[C@@H](CCC(=O)O)C(=O)N1CCC[C@H]1C(=O)N[C@@H](CCCCN)C(=O)N[C@@H](CO)C(=O)N[C@@H](CCCCN)C(=O)N[C@@H](CO)C(=O)N1CCC[C@H]1C(=O)N1CCC[C@H]1C(=O)N1CCC[C@H]1C(=O)N[C@@H](CO)C(=O)O)C(C)C [Compound A58] (H-YSHGTFTSDYSKYLD[Aib]KRAQEFV[Aib]WLEDEPKSKSPPPS-OH; N-terminus assumed) | 37.7 mL/min/kg | > 1 nM
CC(C)C[C@H](NC(=O)[C@H](Cc1ccc(O)cc1)NC(=O)[C@H](CCCCN)NC(=O)[C@H](CO)NC(=O)[C@H](Cc1ccc(O)cc1)NC(=O)[C@H](CC(=O)O)NC(=O)[C@H](CO)NC(=O)[C@@H](NC(=O)[C@H](Cc1ccccc1)NC(=O)[C@@H](NC(=O)CNC(=O)[C@H](Cc1c[nH]cn1)NC(=O)[C@H](CO)NC(=O)[C@@H](N)Cc1ccc(O)cc1)[C@@H](C)O)[C@@H](C)O)C(=O)N[C@@H](CC(=O)O)C(=O)N[C@@H](CO)C(=O)N[C@@H](C)C(=O)N[C@@H](CCCNC(=N)N)C(=O)N[C@@H](C)C(=O)N[C@@H](CCC(N)=O)C(=O)N[C@@H](CCC(=O)O)C(=O)N[C@@H](Cc1ccccc1)C(=O)N[C@H](C(=O)N[C@@H](CCCCN)C(=O)N[C@@H](Cc1c[nH]c2ccccc12)C(=O)N[C@@H](CC(C)C)C(=O)N[C@@H](CCC(=O)O)C(=O)N[C@@H](CC(=O)O)C(=O)N[C@@H](CCC(=O)O)C(=O)N1CCC[C@H]1C(=O)N[C@@H](CCCCN)C(=O)N[C@@H](CO)C(=O)N[C@@H](CCCCN)C(=O)N[C@@H](CCC(=O)O)C(=O)N1CCC[C@H]1C(=O)N1CCC[C@H]1C(=O)N1CCC[C@H]1C(=O)N[C@@H](CO)C(N)=O)C(C)C [Compound A72] (H-YSHGTFTSDYSKYLDSARAQEFVKWLEDEPKSKEPPPS-NH2) | 31.3 mL/min/kg | > 1 nM
